pKd: −log10 of the molar value. Like-named read-outs stand apart in the source and are kept apart here.

The values that follow come from paper PMC12686243, “Synthesis and preclinical evaluation of FAP-targeting radiotracers for PET and optical imaging” (EJNMMI Radiopharmacy and Chemistry, 2025).

For data set [1], the target named is T1, hFAP (vital hFAP-HT1080 cells) (Homo sapiens, UniProt Q12884).
T1 construct: expressed in transfected cells; host or cells: HT1080 (human fibrosarcoma), lentiviral transduction
T1 sequence (Q12884 1-760): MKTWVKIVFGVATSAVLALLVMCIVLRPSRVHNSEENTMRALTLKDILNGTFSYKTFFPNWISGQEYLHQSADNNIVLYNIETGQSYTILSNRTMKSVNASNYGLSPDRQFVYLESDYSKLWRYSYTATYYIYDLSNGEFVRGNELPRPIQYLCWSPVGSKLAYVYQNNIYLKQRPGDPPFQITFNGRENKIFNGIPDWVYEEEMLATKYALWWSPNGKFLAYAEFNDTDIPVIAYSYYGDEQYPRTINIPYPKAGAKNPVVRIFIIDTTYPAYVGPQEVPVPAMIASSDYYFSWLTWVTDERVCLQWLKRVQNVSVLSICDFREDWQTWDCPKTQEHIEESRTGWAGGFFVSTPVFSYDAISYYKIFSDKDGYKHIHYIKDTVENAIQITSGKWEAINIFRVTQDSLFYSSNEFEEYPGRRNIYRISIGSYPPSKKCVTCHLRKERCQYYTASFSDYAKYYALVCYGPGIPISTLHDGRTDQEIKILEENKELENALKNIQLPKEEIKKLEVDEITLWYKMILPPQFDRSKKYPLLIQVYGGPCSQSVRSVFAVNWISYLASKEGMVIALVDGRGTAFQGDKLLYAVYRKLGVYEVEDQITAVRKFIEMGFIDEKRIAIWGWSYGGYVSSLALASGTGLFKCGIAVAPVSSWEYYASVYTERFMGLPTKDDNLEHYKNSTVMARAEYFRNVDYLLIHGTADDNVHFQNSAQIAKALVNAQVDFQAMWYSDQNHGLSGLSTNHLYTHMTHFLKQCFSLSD
Description: real-time binding (LigandTracer) to vital hFAP-HT1080 cells. The note with it: for Bmax (%): fitted per individual curve, range; for Bmax (%) / ka / kd: room temperature; for ka / kd: global fit, 1:1 model. On the procedure: (§1) To determine binding kinetics (association rate constant ka, dissociation rate constant kd, and thermodynamic dissociation constant KD), real-time assay systems (LigandTracer Yellow/White for radioactivity and Green with Red/NIR + and NIR + + /IR detectors for fluorescence; Ridgeview Instruments AB, Sweden) were utilized. In a 100 mm petri dish, cells or tissue sections in medium (3–4 mL total volume), are located on one side, while the radioactive or fluorescent signal is detected on the opposite, elevated side. Rotation on an inclined base in set intervals (30 s) allows continuous measurement of signal in the target (cells/tissue) against background area (no cells/tissue). Experiments were performed at room temperature, using CO2-independent medium, usually with 0.5–1% w/v bovine serum albumin, (#1ETA, Carl Roth, Germany). Association was determined through incubation with two distinct concentrations (between 1–5 and 4.5–10 nM, 60 min each, additive) for each compound. For that purpose, the same ligand preparation was typically employed for radioactive and fluorescent detection. This was followed by replacement with fresh medium and observation of dissociation for at least 2 h. Additionally, the dissociation rate constant was further investigated beyond 6 h, either using fluorescent detection or via gallium-67 (t1/2: 78.3 h). This approach provides reliable kinetic measurements in a 1:1 interaction setting, as previously shown (Onell and Andersson [2005]).
Binding data was evaluated using TraceDrawer (1.9.2, Ridgeview Instruments AB, Sweden). Traces were imported, potential spikes (> 100% sudden signal increases over previous datapoints) removed and each trace was normalized to its own baseline (= 0%) and highest value (= 100%, typically at the end of the second association phase). This allows comparing data across experiments and ultimately global fitting, without differences, e.g. of molar activity, affecting it. Typically, at least 3 individual traces per ligand, substrate and modality were recorded. Data was fitted in TraceDrawer using a 1:1 interaction model, with/without accounting for bulk effect. A 1:1 interaction is the simplest model, as it describes the binding of a ligand at a constant concentration to the target, with each one molecule of ligand binding to one molecule of target.

The subject of data set [2] is hFAP-HT1080 and WT-HT1080 xenografts. Description: small-animal PET imaging of xenograft-bearing mice. It counts as in vivo, female NMRI-nude mice. From the text:
Female athymic NMRI-nude mice (Rj:NMRI-Foxn1nu, Janvier Labs, France or Charles River, Germany) between 8 and 20 weeks of age were used. Subsequently, the prepared cells (1.0–2.0 × 10^6 hFAP/WT-HT1080 per animal) were subcutaneously injected into the right and left thigh, respectively. Xenograft tissue for real-time binding experiments was derived from animals injected with both target-positive and negative cells, however only showing growth of one tumor entity. When approaching endpoints, mice were anesthetized and euthanized. The tumor was quickly removed, frozen in − 45 °C 2-methylbutane and stored in sealed tubes at − 80 °C.
PET and X-ray computed tomography (CT) were performed in a dedicated small animal scanner (nanoScan PET/CT, Mediso, Hungary). Animals received a single dynamic scan corresponding to 0–2 h post injection. The radiotracer solution (8 – 20 MBq injected activity) was delivered via an i.v. catheter (lateral tail vein) and PET acquisition was started simultaneously with the injection. Blocking was performed by pre-injection (~ 5 min prior to tracer) of 100 nmol of FAPI-04. Three-dimensional list mode data were binned (400–600 keV energy window) and sorted into 35-time frames (15 × 10 s, 5 × 30 s, 5 × 60 s, 4 × 300 s, 3 × 600 s, 3 × 1200 s). Time frames were then reconstructed using the Tera-Tomo™ 3D algorithm with a voxel size of 0.4 mm and corrected for decay, scatter, and attenuation. PET data was analyzed using Rover (ABX GmbH, Germany). Three-dimensional volumes of interest (VOI) were delineated based on organs/tissues [xenografts, kidney, liver, shoulder and muscle (~ biceps brachii)] and a fixed threshold (35% of the measured maximum intensity) was applied. This yielded standardized uptake values (SUV = [MBq detected activity/mL tissue] / [MBq injected activity/g body weight], mL/g) for the chosen VOI.

For a further data set, the system named is WT-HT1080 cells. Briefly: real-time binding control on wild type HT1080 cells. Details: species or system human. The note with it: cells lacking substantial FAP expression. As to the method: as §1, with “This approach provides reliable kinetic measurements in a 1:1 interaction setting, as previously shown (Onell and Andersson [2005]).” left out
The mark [3] stands for this setting: from global fit of ka and kd, read-out: KD.
[4] abbreviates: real-time binding, live cells, read-out: binding affinity (KD).

By pKd is commonly meant the Kd on a negative log10 scale, so that one unit is a factor of ten. With `CN(CCCN1CCN(C(=O)[C@H](CCCCNC(=O)CC[C@H](C(=O)[O-])N2CCN(CC(=O)[O-])CCN(CC(=O)[O-])CC2)NC(=O)CCOCCOCCOCCOCCNC(=O)CCCCCN2C(=CC=C3CCCC(C=CC4=[N+](CCCCS(=O)(=O)[O-])c5ccc(S(=O)(=O)O)cc5C4(C)C)=C3Oc3ccc(S(=O)(=O)O)cc3)C(C)(C)c3cc(S(=O)(=O)O)ccc32)CC1)c1ccc2nccc(C(=O)NCC(=O)N3CC(F)(F)C[C@H]3C#N)c2c1.[68Ga+3]` [[^68Ga]Ga-NODAGA-FAP800], in data set [1], the “Bmax (%)” value is listed as 91–96%, the ka came out at 411000 M⁻¹ s⁻¹ and the kd amounted to 2.37e-05 s⁻¹. In addition, in data set [1] (setting [3]), the negative-log Kd (pKd) was 10.24. In addition, the pKd in data set [1] (setting [4]) is 10.24. In data set [2] (SUVmean), the “radioactivity in hFAP-HT1080 xenografts higher than in WT-HT1080 tumor (SUVmean)” value was 236%. Also, in data set [2] (pre-injection of unlabeled FAPI-04, depending on timepoint), the “increase of radioactivity in the kidney compared to tracer-only animals” value was “not observed”. Further, the “binding to wild type HT1080 cells” value in the data set on WT-HT1080 cells was “lacking any binding”.
`CN(CCCN1CCN(C(=O)[C@H](CCCCNC(=O)CC[C@H](C(=O)[O-])N2CCN(CC(=O)[O-])CCN(CC(=O)[O-])CC2)NC(=O)CCOCCOCCOCCOCCNC(=O)CCCCC[N+]2=C(C=CC=CC=C3N(CCCS(=O)(=O)O)c4ccc(S(=O)(=O)O)cc4C3(C)C)C(C)(CCCS(=O)(=O)O)c3cc(S(=O)(=O)[O-])ccc32)CC1)c1ccc2nccc(C(=O)NCC(=O)N3CC(F)(F)C[C@H]3C#N)c2c1.[68Ga+3]` (stereo partly drawn) [[^68Ga]Ga-NODAGA-FAP647]: in data set [1], the “Bmax (%)” value is 84–98%, the ka is 484000 M⁻¹ s⁻¹ and the kd was 6.67e-06 s⁻¹. Besides, in data set [1] (setting [3]), the negative logarithm of the Kd (pKd) is 10.86. Besides, in data set [1] (setting [4]), the negative-log Kd (pKd) is 10.85. In data set [2] (SUVmax), the “radioactivity in hFAP-HT1080 xenografts higher than in WT-HT1080 tumor (SUVmax)” value is listed as 392%. Moreover, the “binding to wild type HT1080 cells” value in the data set with WT-HT1080 cells was “lacking any binding”.
